The subject of this assay is P388 leukemia ip, CD2F1 mice, survival T/C. In words: NCI In Vivo Anticancer Drug Screen. Data for tumor model P388 Leukemia (intraperitoneal) in CD2F1 (CDF1) mice. The settings on record: endpoint: median survival time, higher = longer survival. The procedure, abridged: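 Mice carrying the transplanted tumor received test compound or vehicle. Survival was recorded in each group, and the value is the treated-group measurement divided by that of the vehicle-treated control group.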

[1] abbreviates: dose: 50.0 mg/kg/injection, schedule: Q04DX003 (ip), vehicle: saline.
[2] abbreviates: dose: 100.0 mg/kg/injection, schedule: Q04DX003 (ip), vehicle: saline.
[3] abbreviates: dose: 200.0 mg/kg/injection, schedule: Q04DX003 (ip), vehicle: saline.
The mark [4] stands for this setting: dose: 60.0 mg/kg/injection, schedule: Q01DX005 (ip), vehicle: saline with Tween-80.
The mark [5] stands for this setting: dose: 50.0 mg/kg/injection, schedule: Q01DX005 (ip), vehicle: saline with Tween-80.
Setting [6] is: dose: 100.0 mg/kg/injection, schedule: Q01DX005 (ip), vehicle: saline with Tween-80.
Setting [7] is: dose: 200.0 mg/kg/injection, schedule: Q01DX005 (ip), vehicle: saline with Tween-80.
The mark [8] stands for this setting: dose: 50.0 mg/kg/injection, schedule: Q01DX009 (ip), vehicle: saline.
Where [9] appears, read: dose: 12.5 mg/kg/injection, schedule: Q01DX005 (ip), vehicle: saline with Tween-80.
[10] abbreviates: dose: 25.0 mg/kg/injection, schedule: Q01DX005 (ip), vehicle: saline with Tween-80.
Setting [11] is: dose: 50.0 mg/kg/injection, schedule: Q01DX005 (ip), vehicle: Klucel (hydroxypropylcellulose) (HPC).
[12] abbreviates: dose: 100.0 mg/kg/injection, schedule: Q01DX005 (ip), vehicle: Klucel (hydroxypropylcellulose) (HPC).
[13] abbreviates: dose: 200.0 mg/kg/injection, schedule: Q01DX005 (ip), vehicle: Klucel (hydroxypropylcellulose) (HPC).
Where [14] appears, read: dose: 12.5 mg/kg/injection, schedule: Q01DX009 (ip), vehicle: saline with Tween-80.
[15] abbreviates: dose: 25.0 mg/kg/injection, schedule: Q01DX009 (ip), vehicle: saline with Tween-80.
The mark [16] stands for this setting: dose: 50.0 mg/kg/injection, schedule: Q01DX009 (ip), vehicle: saline with Tween-80.
The mark [17] stands for this setting: dose: 100.0 mg/kg/injection, schedule: Q01DX009 (ip), vehicle: saline.
[18] abbreviates: dose: 200.0 mg/kg/injection, schedule: Q01DX009 (ip), vehicle: saline.

Values joined by “and” are separate entries in the source; they are usually repeats but may differ in a detail not shown here. Equal values may be shown once. Toxic doses and inconclusive results are not listed.

Turning to `Nc1nc(N)c2cc(C=O)ccc2n1`, the T/C by setting is: (dose: 0.39 mg/kg/injection, schedule: Q01DX009 (ip), vehicle: distilled water + Tween-80) 100 % of control; (dose: 0.78 mg/kg/injection, schedule: Q01DX009 (ip), vehicle: distilled water + Tween-80) 101 % of control; (dose: 1.56 mg/kg/injection, schedule: Q01DX009 (ip), vehicle: distilled water + Tween-80) 110 % of control; (dose: 3.13 mg/kg/injection, schedule: Q01DX009 (ip), vehicle: distilled water + Tween-80) 100 % of control; (dose: 6.25 mg/kg/injection, schedule: Q01DX009 (ip), vehicle: distilled water + Tween-80) 109 % of control.
On to `O=C(O)C1Cc2c([nH]c3ccccc23)C(C(=O)O)N1` (stereo not given), for which the T/C by setting is: under setting [1], 95 % of control; under setting [2], 95 % of control; under setting [3], 93 % of control.
Consider `CCOC(=O)C(Cc1ccc(O)cc1)NC(=O)C1Cc2c([nH]c3ccccc23)C=N1` (stereo not given), for which the T/C was 100 % of control under setting [4]; 102 % of control (dose: 120.0 mg/kg/injection, schedule: Q01DX005 (ip), vehicle: saline with Tween-80); 106 % of control (dose: 240.0 mg/kg/injection, schedule: Q01DX005 (ip), vehicle: saline with Tween-80).
For `CC(C)CC(NC(=O)C(CC(C)C)NC(=O)OCc1ccccc1)C(=O)O` (stereo not given), the T/C runs as follows: under setting [5], 100 % of control; under setting [6], 102 % of control; under setting [7], 94 % of control.
As for `[Cl][Eu]([Cl])[Cl]`, the T/C under setting [8] is 89 % of control.
As to `O=Cc1cc(CCl)ccc1O`, the T/C was 103 % of control under setting [9], 110 % of control under setting [10], 113 % of control under setting [5] and 98 % of control under setting [6].
Regarding `CN(C)CCCOC1=Nc2ccccc2O/C1=C/c1cccs1`, the T/C is, setting by setting: (dose: 25.0 mg/kg/injection, schedule: Q04DX003 (ip), vehicle: saline) 94 % of control; under setting [1], 94 % of control; under setting [2], 100 % of control and 94 % of control.
`CCCN(CCC)CC(=O)NC1CC(OC2CC(O)(C(C)=O)Cc3c(O)c4c(c(O)c32)C(=O)c2c(OC)cccc2C4=O)OC(C)C1O` (stereo not given): the T/C by setting is: (dose: 0.25 mg/kg/injection, schedule: Q01DX009 (ip), vehicle: water) 107 % of control; (dose: 0.5 mg/kg/injection, schedule: Q01DX009 (ip), vehicle: water) 101 % of control; (dose: 1.0 mg/kg/injection, schedule: Q01DX009 (ip), vehicle: water) 107 % of control; (dose: 2.0 mg/kg/injection, schedule: Q01DX009 (ip), vehicle: water) 103 % of control; (dose: 4.0 mg/kg/injection, schedule: Q01DX009 (ip), vehicle: water) 100 % of control; (dose: 8.0 mg/kg/injection, schedule: Q01DX009 (ip), vehicle: water) 107 % of control.
In the case of `CC1CCc2c(c3ccc(O)cc3oc2=O)C1` (stereo not given), the T/C is 101 % of control under setting [11], 96 % of control under setting [12] and 92 % of control under setting [13].
Take `COC(=O)C1CSC(c2c(COP(=O)(O)O)cnc(C)c2O)N1` (stereo not given): the T/C by setting is: (dose: 100.0 mg/kg/injection, schedule: Q01DX001 (ip), vehicle: saline) 103 % of control; (dose: 200.0 mg/kg/injection, schedule: Q01DX001 (ip), vehicle: saline) 105 % of control; (dose: 400.0 mg/kg/injection, schedule: Q01DX001 (ip), vehicle: saline) 96 % of control.
For the compound `CN(CCCN(C)CCC1CCCCC1)CCC1CCCCC1`, the T/C is 100 % of control under setting [14], 103 % of control under setting [15] and 105 % of control under setting [16].
As to `C1=Cc2cc(CN3CCOCC3)ccc2Nc2ccccc21`, the T/C is, setting by setting: (dose: 60.0 mg/kg/injection, schedule: Q01DX005 (ip), vehicle: Klucel (hydroxypropylcellulose) (HPC)) 99 % of control; (dose: 120.0 mg/kg/injection, schedule: Q01DX005 (ip), vehicle: Klucel (hydroxypropylcellulose) (HPC)) 89 % of control.
`Cc1cc(NS(=O)(=O)c2ccc(N=Nc3cc(N=Nc4ccc(S(=O)(=O)Nc5cc(C)nc(C)n5)cc4)c4c(NC(=O)C(Cl)Cl)cccc4c3OC(=O)C(Cl)Cl)cc2)nc(C)n1` (tested in a mixture with another compound): the T/C is 113 % of control under setting [14]; 117 % of control under setting [15]; 106 % of control [middle of 4 runs] under setting [16]; 108 % of control [middle of 4 runs] under setting [8]; 99 % of control and 105 % of control and 107 % of control (dose: 100.0 mg/kg/injection, schedule: Q01DX009 (ip), vehicle: saline with Tween-80); 111 % of control and 115 % of control and 118 % of control under setting [17]. In addition, the T/C runs as follows: (dose: 200.0 mg/kg/injection, schedule: Q01DX009 (ip), vehicle: saline with Tween-80) 91 % of control and 95 % of control; under setting [18], 99 % of control.
As for `CC(=O)C(/C=N/C(N)=O)=C(/C)O`, the T/C is, setting by setting: under setting [1], 100 % of control; under setting [2], 100 % of control; under setting [3], 110 % of control.
Take `CC1(C)CC(=O)C(=N/O)/C(=N\NC(N)=S)C1`: the T/C is 102 % of control under setting [5], 103 % of control under setting [6] and 110 % of control under setting [7].
On to `O=S(=O)(O)CC[S][Sn]([S]CCS(=O)(=O)O)([c]1ccccc1)[c]1ccccc1`, for which the T/C (dose: 3.75 mg/kg/injection, schedule: Q01DX005 (ip), vehicle: Klucel (hydroxypropylcellulose) (HPC)) is 153 % of control.
As to `O=C1OC(=O)c2cc([N+](=O)[O-])cc3cccc1c23`, the T/C is, setting by setting: under setting [5], 108 % of control and 110 % of control (2×); under setting [6], 100 % of control and 103 % of control and 111 % of control; under setting [7], 102 % of control and 110 % of control and 123 % of control; (dose: 400.0 mg/kg/injection, schedule: Q01DX005 (ip), vehicle: saline with Tween-80) 119 % of control.
For `OC1CC2CCC(N2)C1c1ccccc1` (stereo not given), the T/C is 94 % of control under setting [9]; 86 % of control under setting [10]; 101 % of control and 93 % of control under setting [5].
Regarding `CCOC(=O)c1cc([N+](=O)[O-])c(SSc2sc(C(=O)OCC)cc2[N+](=O)[O-])s1`, the T/C is 104 % of control (dose: 100.0 mg/kg/injection, schedule: Q04DX003 (ip), vehicle: saline with Tween-80); 96 % of control (dose: 200.0 mg/kg/injection, schedule: Q04DX003 (ip), vehicle: saline with Tween-80); 95 % of control (dose: 400.0 mg/kg/injection, schedule: Q04DX003 (ip), vehicle: saline with Tween-80).
On to `N/C(=N\N=C1CCCCC1)N[N+](=O)[O-]`, for which the T/C by setting is: under setting [11], 105 % of control; under setting [12], 102 % of control; under setting [13], 102 % of control.
In the case of `Cc1ccc2[nH]c(N(C)C)nc2c2nc(Cl)nc1-2`, the T/C (dose: 8.25 mg/kg/injection, schedule: Q01DX005 (ip), vehicle: saline) is 108 % of control; the T/C (dose: 16.5 mg/kg/injection, schedule: Q01DX005 (ip), vehicle: saline) is 103 % of control; the T/C (dose: 33.0 mg/kg/injection, schedule: Q01DX005 (ip), vehicle: saline) is 100 % of control; the T/C (dose: 66.0 mg/kg/injection, schedule: Q01DX005 (ip), vehicle: saline) was 97 % of control.
As for `Brc1cc2c(cc1C=NC1CCCCC1)OCO2`, the T/C runs as follows: (dose: 100.0 mg/kg/injection, schedule: Q01DX001 (ip), vehicle: Klucel (hydroxypropylcellulose) (HPC)) 99 % of control; (dose: 200.0 mg/kg/injection, schedule: Q01DX001 (ip), vehicle: Klucel (hydroxypropylcellulose) (HPC)) 101 % of control; (dose: 400.0 mg/kg/injection, schedule: Q01DX001 (ip), vehicle: Klucel (hydroxypropylcellulose) (HPC)) 101 % of control.
As to `O=C(Cc1cccc(CC(=O)c2ccccc2)n1)c1ccccc1`, the T/C was 108 % of control (dose: 15.0 mg/kg/injection, schedule: Q01DX005 (ip), vehicle: saline with Tween-80); 92 % of control (dose: 30.0 mg/kg/injection, schedule: Q01DX005 (ip), vehicle: saline with Tween-80); 92 % of control and 93 % of control under setting [4].
`c1ccc2c(c1)Sc1cnccc1N2CC1CO1` (stereo not given): the T/C runs as follows: under setting [17], 109 % of control; under setting [18], 100 % of control; (dose: 400.0 mg/kg/injection, schedule: Q01DX009 (ip), vehicle: saline) 100 % of control.

(Values after PubChem BioAssay AID330 (DTP/NCI, 2004).)
